{"source": "patent US7994140B2", "about": "“Classes of compounds that interact with GPCRs” (Alchemia Limited, priority 2002, dated 2011)", "data": [{"biological_target": "T1, MC4 (Homo sapiens, UniProt P32245)", "T1 construct": "purchased Perkin Elmer BioSignal; host or cells: HEK 293", "T1 sequence (P32245 whole entry)": "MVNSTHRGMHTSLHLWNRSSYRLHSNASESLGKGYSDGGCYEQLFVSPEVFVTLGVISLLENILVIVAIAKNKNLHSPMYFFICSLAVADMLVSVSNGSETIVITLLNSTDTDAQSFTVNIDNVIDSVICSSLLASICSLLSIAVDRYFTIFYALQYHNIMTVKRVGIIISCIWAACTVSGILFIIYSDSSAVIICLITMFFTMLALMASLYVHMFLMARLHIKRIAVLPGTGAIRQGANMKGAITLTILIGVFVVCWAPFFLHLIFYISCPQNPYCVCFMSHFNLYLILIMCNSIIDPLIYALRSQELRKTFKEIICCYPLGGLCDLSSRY", "assay": "GPCR radioligand binding (RLB) assay, melanocortin MC4, [125I]NDP-αMSH", "conditions": "4.0 Micromolar; Example Library 13", "in_short": "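Competition binding against radioligand ([125I]NDP-αMSH for MC4, [125I]SST-14 for SST5) on membranes of HEK 293 cells carrying the human receptor; buffer and incubation time optimized per receptor. Filtration through 0.5% PEI-treated glass fiber, washing, then scintillation counting.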", "values": [{"compound": "N=C(N)NCC(=O)N[C@H]1C(OCc2ccc(-c3ccccc3)cc2)O[C@H](COCc2ccc(Cl)cc2)[C@@H](O)[C@H]1OCc1ccc(-c2ccccc2)cc1", "note": "(some centres unmarked) [Compound 469]", "MC4 Inhibition at 4.0 Micromolar": "+ (Indicates inhibition greater than . . . 50%)"}, {"compound": "N=C(N)NCCC(=O)N[C@H]1C(OCc2ccc(-c3ccccc3)cc2)O[C@H](COCc2ccc3ccccc3c2)[C@@H](O)[C@H]1OCc1ccc(Cl)cc1", "note": "(some centres unmarked) [Compound 470]", "MC4 Inhibition at 4.0 Micromolar": "+ (Indicates inhibition greater than . . . 50%)"}, {"compound": "N=C(N)NCCC(=O)N[C@H]1C(OCc2ccc(-c3ccccc3)cc2)O[C@H](COCc2ccccc2)[C@@H](O)[C@H]1OCc1ccc(Cl)cc1", "note": "(some centres unmarked) [Compound 471]", "MC4 Inhibition at 4.0 Micromolar": "+ (Indicates inhibition greater than . . . 50%)"}, {"compound": "N=C(N)NCCC(=O)N[C@H]1C(OCc2ccc(-c3ccccc3)cc2)O[C@H](COCc2ccc(Cl)cc2)[C@@H](O)[C@H]1OCc1ccc(Cl)cc1", "note": "(some centres unmarked) [Compound 472]", "MC4 Inhibition at 4.0 Micromolar": "+ (Indicates inhibition greater than . . . 50%)"}, {"compound": "N=C(N)NCCC(=O)N[C@H]1C(OCc2ccc(-c3ccccc3)cc2)O[C@H](COCc2ccc3ccccc3c2)[C@@H](O)[C@H]1OCc1ccc2ccccc2c1", "note": "(some centres unmarked) [Compound 473]", "MC4 Inhibition at 4.0 Micromolar": "+ (Indicates inhibition greater than . . . 50%)"}, {"compound": "N=C(N)NCCC(=O)N[C@H]1C(OCc2ccc(-c3ccccc3)cc2)O[C@H](COCc2ccccc2)[C@@H](O)[C@H]1OCc1ccc2ccccc2c1", "note": "(some centres unmarked) [Compound 474]", "MC4 Inhibition at 4.0 Micromolar": "+ (Indicates inhibition greater than . . . 50%)"}, {"compound": "N=C(N)NCCC(=O)N[C@H]1C(OCc2ccc(-c3ccccc3)cc2)O[C@H](COCc2ccc(Cl)cc2)[C@@H](O)[C@H]1OCc1ccc2ccccc2c1", "note": "(some centres unmarked) [Compound 475]", "MC4 Inhibition at 4.0 Micromolar": "+ (Indicates inhibition greater than . . . 50%)"}, {"compound": "N=C(N)NCCC(=O)N[C@H]1C(OCc2ccc(-c3ccccc3)cc2)O[C@H](COCc2ccc3ccccc3c2)[C@@H](O)[C@H]1OCc1ccc(-c2ccccc2)cc1", "note": "(some centres unmarked) [Compound 476]", "MC4 Inhibition at 4.0 Micromolar": "+ (Indicates inhibition greater than . . . 50%)"}, {"compound": "N=C(N)NCCC(=O)N[C@H]1C(OCc2ccc(-c3ccccc3)cc2)O[C@H](COCc2ccccc2)[C@@H](O)[C@H]1OCc1ccc(-c2ccccc2)cc1", "note": "(some centres unmarked) [Compound 477]", "MC4 Inhibition at 4.0 Micromolar": "+ (Indicates inhibition greater than . . . 50%)"}, {"compound": "N=C(N)NCCC(=O)N[C@H]1C(OCc2ccc(-c3ccccc3)cc2)O[C@H](COCc2ccc(Cl)cc2)[C@@H](O)[C@H]1OCc1ccc(-c2ccccc2)cc1", "note": "(some centres unmarked) [Compound 478]", "MC4 Inhibition at 4.0 Micromolar": "+ (Indicates inhibition greater than . . . 50%)"}, {"compound": "N=C(N)NCC(=O)N[C@H]1C(OCc2ccc(Cl)cc2)O[C@H](COCc2ccc3ccccc3c2)[C@@H](O)[C@H]1OCc1ccc(Cl)cc1", "note": "(some centres unmarked) [Compound 479]", "MC4 Inhibition at 4.0 Micromolar": "+ (Indicates inhibition greater than . . . 50%)"}, {"compound": "N=C(N)NCC(=O)N[C@H]1C(OCc2ccc(Cl)cc2)O[C@H](COCc2ccccc2)[C@@H](O)[C@H]1OCc1ccc(Cl)cc1", "note": "(some centres unmarked) [Compound 480]", "MC4 Inhibition at 4.0 Micromolar": "+ (Indicates inhibition greater than . . . 50%)"}, {"compound": "N=C(N)NCC(=O)NC1C(OCc2ccc(Cl)cc2)OC(COCc2ccc(Cl)cc2)C(O)C1OCc1ccc(Cl)cc1", "note": "(centres unmarked) [Compound 481]", "MC4 Inhibition at 4.0 Micromolar": "+ (Indicates inhibition greater than . . . 50%)"}, {"compound": "N=C(N)NCC(=O)NC1C(OCc2ccc(Cl)cc2)OC(COCc2ccc3ccccc3c2)C(O)C1OCc1ccc2ccccc2c1", "note": "(centres unmarked) [Compound 482]", "MC4 Inhibition at 4.0 Micromolar": "+ (Indicates inhibition greater than . . . 50%)"}, {"compound": "N=C(N)NCC(=O)NC1C(OCc2ccc(Cl)cc2)OC(COCc2ccccc2)C(O)C1OCc1ccc2ccccc2c1", "note": "(centres unmarked) [Compound 483]", "MC4 Inhibition at 4.0 Micromolar": "+ (Indicates inhibition greater than . . . 50%)"}, {"compound": "N=C(N)NCC(=O)NC1C(OCc2ccc(Cl)cc2)OC(COCc2ccc(Cl)cc2)C(O)C1OCc1ccc2ccccc2c1", "note": "(centres unmarked) [Compound 484]", "MC4 Inhibition at 4.0 Micromolar": "+ (Indicates inhibition greater than . . . 50%)"}, {"compound": "N=C(N)NCC(=O)NC1C(OCc2ccc(Cl)cc2)OC(COCc2ccc3ccccc3c2)C(O)C1OCc1ccc(-c2ccccc2)cc1", "note": "(centres unmarked) [Compound 485]", "MC4 Inhibition at 4.0 Micromolar": "+ (Indicates inhibition greater than . . . 50%)"}]}]}
